{
  "source": "patent US20060046998A1",
  "about": "“Method of treatment of gastroesophageal reflux disease and laryngopharyngeal reflux disease” (Fairfield Clinical Trials, LLC, priority 2004, published 2006)",
  "origin": "cited, not measured here",
  "conditions": "oral, when beginning a course of PPI therapy",
  "data": [
    {"smiles": "COc1ccc2nc([S@@+]([O-])Cc3ncc(C)c(OC)c3C)[nH]c2c1", "note": "[esomeprazole]", "values": [
      {"measurement": "time to obtain maximal symptomatic relief", "value": "four"}
    ]},
    {"smiles": "Cc1c(OCC(F)(F)F)ccnc1C[S+]([O-])c1nc2ccccc2[nH]1", "note": "(centres unmarked) [lansoprazole]", "values": [
      {"measurement": "time to obtain maximal symptomatic relief", "value": "five"}
    ]}
  ]
}
